Patent US4255433A, “(+)-(3-Methyl-4-oxo-5N-piperidinothiazolidin-2-ylidene)acetic acid esters, method of preparation and use” (Godecke Aktiengesellschaft, priority 1979, dated 1981)
Entries after “also recorded” stand apart in the source; their conditions may differ. Like-named read-outs stand apart in the source and are kept apart here.

Legend:
[1] = Acute toxicity in rats (intragastral, 7 days observation, LD50 by Weber's probit analysis); assay type: in vivo, rat (SIV 50 strain); settings: rat, in vivo, po
Experimental: (§1) The experimental animals used were male and female rats of the SIV 50 strain with a body weight of 115 to 170 g and of 100 to 160 g, respectively. All the animals were fasted for 20 hours before the commencement of the experiments, water was available ad libitum. There were 10 animals in each dosage group. The test substances were administered intragastrally with a metal probe in the form of 1% tragacanth slurry suspensions (4 ml/100 g of body weight).
(§2) The animals were observed over a period of time of 7 days. For the calculation of the LD50 with the related confidence limits, use was made of Weber's probit analysis (see Grundriss der Biologischen Statistik, pub. Gustav Fischer Verlag, Jena, 1-72).

[2] = cited from earlier work
[3] = system: rats with renovascular high blood pressure; assay: Renovascular high blood pressure in rats; assay type: in vivo, rat (SIV 50 strain); parameters: average blood pressure: unit: mmHg
Text: The antihypertensive properties were investigated in rats which, after experimental ligature of the kidney blood flow, had developed a renovascular high blood pressure. The experimental animals used were male rats of the SIV 50 strain which, under ether narcosis, had been monolaterally nephrectomised and the contralateral renal arteries of which had been stenosed 2 days later with the help of silver clips. After 6 to 8 weeks, these animals developed a high blood pressure. The blood pressure measurement took place bloodlessly on the root of the tail of the animals. The test substances were administered intragastrally once daily as tragacanth slurry suspensions for 33 days.

[4] = system: awake rats (diuresis); assay: Diuresis in awake rats (urine volume within the first 4 hours); assay type: in vivo, rat (SIV 50 strain); settings: intragastral, urine volume in 4 hours, FIG. 2
Experimental: The experimental animals used were male rats of the SIV 50 strain which were kept under constant conditions. Feed was removed 36 hours before the commencement of the experiments but water was available until just before the commencement of the experiment. The test substances were administered intragastrally as suspensions in 1% tragacanth slurry which has been prepared with a 0.2% sodium chloride solution (1 ml/100 g body weight). In addition, the animals were given intragastrally 4 ml/100 g body weight a 0.2% sodium chloride solution. The animals were kept individually in metabolic cages in order to determine the urine volumes within the first 4 hours.

[5] = system: mice; settings: male mice; literature (Meng-Loew, Diuretika, 1974); cited from earlier work
[6] = Racemization of (+)-ozolinone in 0.1N hydrochloric acid and in chloroform; assay type: physicochemical; settings: read-out: degree of racemization
Experimental: Esterification of the known, optically-active (+)-(3-methyl-4-oxo-5N-piperidinothiazolidin-2-ylidene)-acetic acid [(+)-ozolinone (see Federal Republic of Germany Patent Specification No. 26 58 858)] also cannot be carried out with agents which can be used on a large scale because it racemizes under the esterification conditions. Thus, for example, (+)-ozolinone racemizes to an extent of 15% in 0.1N hydrochloric acid in less than 1 hour. Even in chloroform, in the same period of time, the degree of racemization which occurs is about 10%.

[7] = system: male and female rats of the SIV 50 strain; assay: Acute toxicity in rats (intragastral, 7 days observation, LD50 by Weber's probit analysis); assay type: in vivo, rat (SIV 50 strain); settings: rat
Experimental: as §1, §2

[8] = 100 mg/kg i.g., 2nd day after treatment
[9] = 100 mg/kg i.g., 20th day of treatment
[10] = 100 mg/kg i.g., before treatment
[11] = 200 mg/kg i.g., 8th day after treatment
[12] = 200 mg/kg i.g., 10th day of treatment
[13] = 200 mg/kg i.g., 17th day of treatment
[14] = 200 mg/kg i.g., 33rd day of treatment
[15] = 200 mg/kg i.g., before treatment

In the case of `CCOC(=O)C=C1SC(N2CCCCC2)C(=O)N1C` (racemic) [Compound A, ethyl (±)-(3-methyl-4-oxo-5N-piperidinothiazolidin-2-ylidene)acetate], the LD50 at 168 h ([1]; female rat) is given as 10200 mg/kg, the LD50 at 168 h ([1]; male rat) is given as 11000 mg/kg and the “antihypertensive activity (in words)” value ([2]; published) is given as “good antihypertensive activity”. For the same compound, the “diuretic / saluretic activity (in words)” value ([2]; published) was “strong diuretic and saluretic properties”, the “antihypertensive effect at subdiuretic doses (in words)” value ([2]; subdiuretic doses, DE 25 32 180) was “even at subdiuretic doses, an antihypertensive effect occurs” and the average blood pressure [3, 8] was 195. The average blood pressure [3, 9] was 175, the average blood pressure [3, 10] was 197 and the average blood pressure [3, 11] was 182. The average blood pressure [3, 12] was 171, the average blood pressure [3, 13] was 182 and the average blood pressure [3, 14] was 174. For the same compound, the average blood pressure [3, 15] was 187 and the “diuretic action (in words)” value [4] was “diuretically effective in a dosage dependent manner”.
In the case of `NS(=O)(=O)c1cc2c(cc1Cl)NCNS2(=O)=O` [Compound D, 6-chloro-3,4-dihydro-2H-1,2,4-benzothiadiazine-7-sulphonamide 1,1-dioxide], the LD50 [5] is listed as 3,080 mg/kg.
`CCOC(=O)C=C1SC(N2CCCCC2)C(=O)N1C` (single isomer, unassigned) [Compound C, ethyl (-)-(3-methyl-4-oxo-5N-piperidinothiazolidin-2-ylidene)acetate] showed an average blood pressure [3, 8] of 201, an average blood pressure [3, 9] of 176 and an average blood pressure [3, 10] of 191. It also gave an average blood pressure [3, 11] of 190, an average blood pressure [3, 12] of 178 and an average blood pressure [3, 13] of 176. The average blood pressure [3, 14] was 164, the average blood pressure [3, 15] was 192 and the “diuretic action (in words)” value [4] was “diuretically effective in a dosage dependent manner”.
`CN1C(=O)C(N2CCCCC2)SC1=CC(=O)O` (single isomer, unassigned; (+)) [(+)-ozolinone, (+)-(3-methyl-4-oxo-5N-piperidinothiazolidin-2-ylidene)-acetic acid] gave a degraded at 1 h ([6]; 0.1N hydrochloric acid, less than 1 hour) of 15% and a degraded at 1 h ([6]; chloroform, same period of time (less than 1 hour)) of roughly 10%.
With `CCOC(=O)C=C1SC(N2CCCCC2)C(=O)N1C` (single isomer, unassigned) [Compound B, ethyl (+)-(3-methyl-4-oxo-5N-piperidinothiazolidin-2-ylidene)acetate] the LD50 at 168 h ([1]; bound stated) was greater than 2000 mg/kg, the LD50 at 168 h ([1]; female rat) was 4230 mg/kg and the LD50 at 168 h ([1]; male rat) was 3650 mg/kg. For the same compound, the “acute toxicity (in words)” value [7] was “more toxic than Compound A; also recorded: extraordinarily nontoxic”, the average blood pressure [3, 8] was 190 and the average blood pressure [3, 9] was 164. The average blood pressure [3, 10] was 189, the average blood pressure [3, 11] was 182 and the average blood pressure [3, 12] was 159. It also gave an average blood pressure [3, 13] of 150, an average blood pressure [3, 14] of 156 and an average blood pressure [3, 15] of 185. For the same compound, the “antihypertensive action (in words)” value ([3]; rats with renovascular high blood pressure) was “possesses the strongest antihypertensive action and that this effect is dosage dependent” and the “diuretic action (in words)” value [4] was “diuretically inactive; also recorded: does not possess any diuretic action at all”.
In the case of `C=C(CC)C(=O)c1ccc(OCC(=O)O)c(Cl)c1Cl` [Compound F, [2,3-dichloro-4-(2-methylene-1-oxobutyl)phenoxy]acetic acid], the LD50 [5] is given as 600 mg/kg.
